Measurements from BindingDB's records for doi:10.1016/s0960-894x(98)00140-1 (University of Connecticut, 1998).

Target: Pancreatic triacylglycerol lipase (Sus scrofa) (UniProt P00591)
Experiment: Compound was tested for inhibition of porcine pancreatic lipase

Sequence of Pancreatic triacylglycerol lipase (Sus scrofa) (P00591 whole entry, looked up): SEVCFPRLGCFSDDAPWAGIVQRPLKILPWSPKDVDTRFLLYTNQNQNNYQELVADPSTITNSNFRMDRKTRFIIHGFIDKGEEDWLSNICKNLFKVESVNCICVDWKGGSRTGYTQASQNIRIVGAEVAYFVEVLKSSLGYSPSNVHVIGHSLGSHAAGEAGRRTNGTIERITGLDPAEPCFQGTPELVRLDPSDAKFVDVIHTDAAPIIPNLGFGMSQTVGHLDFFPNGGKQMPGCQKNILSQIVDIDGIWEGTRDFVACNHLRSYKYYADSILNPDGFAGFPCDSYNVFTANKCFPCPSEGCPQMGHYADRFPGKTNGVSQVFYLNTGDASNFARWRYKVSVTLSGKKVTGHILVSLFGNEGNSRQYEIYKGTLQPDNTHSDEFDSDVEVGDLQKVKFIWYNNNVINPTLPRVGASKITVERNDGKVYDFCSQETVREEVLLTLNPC

IC50: 3.44 µM
SMILES: C=C1O[C@@H](C[C@H](CCCCCCCCCCC)OC(=O)[C@H](CC(C)C)NC=O)[C@@H]1CCCCCC
